# Data: patent publication US11345682B2, “Polymorph of HDAC6-selective inhibitor and application thereof” (CSTONE PHARMACEUTICALS (SUZHOU) CO., LTD., priority 2018, dated 2022)
# Legend:
# [1] = Solid stability test of the polymorph A (XRPD); assay type: physicochemical; conditions: High temperature and high humidity (40° C., 75% RH; 60° C., 75% RH), 1 month
# [2] = Solid stability test of the polymorph A (XRPD); assay type: physicochemical
# Description: According to the “Guidelines for the Stability Test of Active Pharmaceutical Ingredients and Preparations” (Chinese Pharmacopoeia, 2015, Part IV, General Chapter 9001), the stability of the polymorph A of the compound of formula (I) was investigated under the conditions of high temperature (60° C., open), high humidity (room temperature/relative humidity of 92.5%, open), high temperature and high humidity (40° C., 75% RH; 60° C., 75% RH) and strong light (total illumination of 1.2×10^6 Lux·hr/near ultraviolet 200 w·hr/m^2, sealed).
# 15 mg of the polymorph A of the compound of formula (I) was weighed, placed on the bottom of a glass sample bottle, and spread into a thin layer. The sample placed under high temperature and high humidity was sealed with aluminum foil paper, and some small holes were pierced in the aluminum foil paper to ensure that the sample can fully contact with the ambient air; The samples placed under strong light conditions were sealed with screw caps. The samples placed under different conditions were sampled and tested (XRPD) on day 5 and day 10. The test results were compared with the initial test results on day 0.
# [3] = system: human multiple myeloma cells MM.1S xenograft (CDX); assay: In vivo pharmacodynamic study in MM.1S xenograft (CDX) model
# Description: CB-17 SCID mice, female, 6 weeks to 8 weeks old, weight of about 17 grams to 20 grams. The mice were kept in a special pathogen-free environment and in a single ventilated cage (4 mice per cage). All cages, bedding and water were disinfected before use. All animals had free access to standard certified commercial laboratory food. A total of 64 mice purchased from Beijing Vital River Co., Ltd. were used for study. 0.2 mL of 5×10^6 MM.1S cells were subcutaneously inoculated on the right back of each mouse for tumor growth. The experiment was performed when the average tumor volume reached about 100 cubic millimeters to 150 cubic millimeters.
# In vivo selective experiments were performed on CB-17 SCID mice implanted subcutaneously with human multiple myeloma cells MM.1S xenograft (CDX). The polymorph A of the compound of formula (I) was formulated with a mixed solution of 5% of dimethyl sulfoxide and 95% of 10% hydroxypropyl-β-cyclodextrin into a formulation to be administered orally for 5 days and stopped for 2 days. Ixazomib was administered once on the first day and fourth day of each week, respectively. The tumor volume was measured with a two-dimensional caliper twice a week, and the volume was measured in cubic millimeters and calculated by the following formula: V=0.5 a*b^2, in which a and b were the long diameter and short diameter of the tumor, respectively. The anti-tumor efficacy was determined by dividing the average tumor increase volume of animals treated with the compound by the average tumor increase volume of untreated animals.
structure (smiles),measurement,setting,value
O=C(NO)c1ccc(CNC(=O)c2ccc(C3(c4ccc(F)cc4)CCCO3)cn2)cc1 (centres unmarked),Polymorph,[1],Polymorph A
same,Polymorph,"[2]; Day 0, initial (XRPD)",Polymorph A
same,Polymorph,"[2]; High humidity (room temperature/relative humidity of 92.5%, open), Day 5",Polymorph A
same,Polymorph,"[2]; High humidity (room temperature/relative humidity of 92.5%, open), Day 10",Polymorph A
same,Polymorph,"[2]; High temperature (60° C., open), Day 5",Polymorph A
same,Polymorph,"[2]; High temperature (60° C., open), Day 10",Polymorph A
same,Polymorph,"[2]; High temperature and high humidity (40° C., 75% RH; 60° C., 75% RH), Day 10",Polymorph A
same,Polymorph,"[2]; Strong light (5000 lx, sealed), Day 5",Polymorph A
same,Polymorph,"[2]; Strong light (5000 lx, sealed), Day 10",Polymorph A
same,Solid stability (conclusion),"[2]; high temperature, high humidity, high temperature and high humidity, and strong light",good stability
same,Stability (general statement),"[2]; light, heat and humidity, technical effects statement","stable, less affected by light, heat and humidity"
same,Tumor volume,"[3]; 75 mg/kg oral, administration for 5 days and drug withdrawal for 2 days, Day 0",134 mm^3
same,Tumor volume,"[3]; 75 mg/kg oral, administration for 5 days and drug withdrawal for 2 days, Day 3",165 mm^3
same,Tumor volume,"[3]; 75 mg/kg oral, administration for 5 days and drug withdrawal for 2 days, Day 5",319 mm^3
same,Tumor volume,"[3]; 75 mg/kg oral, administration for 5 days and drug withdrawal for 2 days, Day 7",466 mm^3
same,Tumor volume,"[3]; 75 mg/kg oral, administration for 5 days and drug withdrawal for 2 days, Day 10",753 mm^3
same,Tumor volume,"[3]; 75 mg/kg oral, administration for 5 days and drug withdrawal for 2 days, Day 12",1006 mm^3
same,Tumor volume,"[3]; 75 mg/kg oral, administration for 5 days and drug withdrawal for 2 days, Day 14",1532 mm^3
same,Efficacy in vivo (general statement),[3]; technical effects statement,good efficacy in vivo
"CC(C)C[C@H](NC(=O)CNC(=O)c1cc(Cl)ccc1Cl)B(O)O [Ixazomib, reference compound]",Tumor volume,"[3]; Ixazomib 4 mg/kg, twice a week, Day 0",134 mm^3
same,Tumor volume,"[3]; Ixazomib 4 mg/kg, twice a week, Day 3",157 mm^3
same,Tumor volume,"[3]; Ixazomib 4 mg/kg, twice a week, Day 5",193 mm^3
same,Tumor volume,"[3]; Ixazomib 4 mg/kg, twice a week, Day 7",331 mm^3
same,Tumor volume,"[3]; Ixazomib 4 mg/kg, twice a week, Day 10",634 mm^3
same,Tumor volume,"[3]; Ixazomib 4 mg/kg, twice a week, Day 12",835 mm^3
same,Tumor volume,"[3]; Ixazomib 4 mg/kg, twice a week, Day 14",1257 mm^3
